Measurements: patent publication US20160143862A1, “METHOD OF USING BETA-IONONE TO TREAT AND PREVENT DISEASE INDUCED BY PROPIONIBACTERIUM ACNES” (NATIONAL TAIWAN NORMAL UNIVERSTITY, priority 2014, published 2016)

Tests used:
[1] = tested on: P. acnes-induced IL-8 production by THP-1 cells; assay: inhibition of P. acnes-induced IL-8 production by THP-1 cells (enzyme immunoassay); assay type: cell-based, Human; conditions: 10, 20, 50 μM; P. acnes MOI 75; 24-h incubation; p<0.001
Description: Propionibacterium acnes (BCRC 10723, purchased from the Bioresource Collection and Research Center, Hsinchu, Taiwan) was cultured in a brain heart infusion (BHI) broth. The bacteria were cultured in an anaerobic atmosphere using BBL GasPak systems.

[2] = tested on: human monocytic THP-1 cells; assay: cytotoxicity of beta-ionone on THP-1 cells (cellular viability)
Description: Human monocytic THP-1 cells (BCRC 60430, purchased from the Bioresource Collection and Research Center, Hsinchu, Taiwan) were cultured in RPMI 1640 medium and supplemented with 10% of fetal bovine serum, 0.05 mM of 2-mercaptoethanol, and 100 units/mL of penicillin G sodium, 100 μg/mL of streptomycin sulfate, and 250 ng/mL of amphotericin B at 37° C. in a 5% CO2 humidified environment.
THP-1 cells are seeded at 2×10^5 cells/well in a 96-well plate with FBS-free RMPI 1640 medium, and are stimulated with Propionibacterium acnes (multiplicity of infection=75) alone or in combination with various concentrations of 10, 20, 50 μM of beta-ionone for a 24-h incubation.

[3] = tested on: Propionibacterium acnes-induced ear swelling in ICR mice; assay: P. acnes-induced mouse ear inflammation (ear thickness, biopsy weight, redness, neutrophil infiltration); assay type: in vivo
From the text: In the animal experiment of this embodiment, four-week-old male […] were purchased from the Experimental Animal Center of the National Taiwan University. After 1 week of adaptation, the mice were randomly divided into three groups of six animals each. The three groups of mice are, namely a blank control group of mice injected with a phosphate buffer solution (hereinafter referred to as “PBS-control”), an experimental group of mice injected with Propionibacterium acnes (hereinafter referred to as “P. acnes group”), and an experimental group of mice injected with Propionibacterium acnes and beta-ionone (hereinafter referred to as “P. acnes+beta-ionone group”). Mice were housed in plastic cages, under standard temperature-controlled conditions with a 12 h/12 h light-dark cycle and free access to food and water throughout the experiments. The experiments are each carried out by following the steps described below, so as to inject 10 µL of liquid (phosphate buffer solution (PBS), P. acnes, or P. acnes+beta-ionone) into the mice' ears, respectively. […] Mercy killing is carried out to all the mice 24 hours after the aforesaid injections, and then the ear's swelling induced by P. acnes was quantified as the percentage increases in the thickness and weight of the left ear biopsy. The thickness of the mice's ears is measured with a micrometer caliper. […]

Structure (SMILES): CC(=O)/C=C/C1=C(C)CCCC1(C)C [beta-ionone, (3E)-4-(2,6,6-trimethylcyclohex-1-en-1-yl)but-3-en-2-one]
- inhibitory effect on P. acnes-induced IL-8 production by THP-1 cells [1]: marked inhibitive effect
- cytotoxic effect on human monocytic THP-1 cells ([2]; beta-ionone at 10, 20, 50 μM): does not have any cytotoxic effect
- concentration with cytotoxic effect on THP-1 cells ([2]; cellular viability compared with untreated control, p<0.05, p<0.001): ≥ 100 µM
- effect on redness, neutrophils infiltration and swelling (ear thickness and biopsy weight) caused by P. acnes ([3]; 50 μg/10 μL injected into ear with 6×10^7 CFU P. acnes, 24 hours, p<0.01, p<0.001): effective in reducing the redness, neutrophils infiltration, and swelling
- redness and swelling of right ears (P. acnes + beta-ionone) versus left ears (P. acnes) ([3]; 50 μg/10 μL injected into ear, 24 hours after injection, FIG. 9): significantly abated redness and swelling
